The supplement of paper PMC13207355

Columns and labels:
Conditions in all cases: exposure time: 72 h
E28 [1] = patient-derived glioblastoma stem cells of classical subtype; assay: surviving fraction (nuclei count normalised to DMSO); higher = more cells surviving (less toxic)
E34 [2] = patient-derived glioblastoma stem cells of proneural subtype; assay: as above
E13 [3] = patient-derived glioblastoma stem cells of classical subtype; assay: as above
E21 [4] = patient-derived glioblastoma stem cells of mesenchymal subtype; assay: as above
E57 [5] = patient-derived glioblastoma stem cells of mesenchymal subtype; assay: as above
FT3469 [6] = normal neural stem cell line; assay: as above
E31 [7] = patient-derived glioblastoma stem cells of proneural subtype; assay: as above
E28 [8] = assay: phenotypic distance (Euclidean, principal components) from DMSO controls (arbitrary units); higher = stronger morphological change
E34 [9] = assay: as above
E13 [10] = assay: as above
E21 [11] = assay: as above
E57 [12] = assay: as above
FT3469 [13] = assay: as above
E31 [14] = assay: as above
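For phenotypic distance (Euclidean, principal components) from DMSO controls in this document: cell Painting imaging in 384-well plates, CellProfiler features reduced to at least 20 principal components, Euclidean distance versus same-plate DMSO vehicle wells (0.1% v/v), median over six images per well.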
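For surviving fraction (nuclei count normalised to DMSO) in this document: nuclei counted by high-content imaging of Hoechst-stained cells in laminin-coated 384-well plates, relative to 0.1% DMSO vehicle wells, with staurosporine as cell-death control.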

OCCN1C[C@H](O)[C@@H](O)[C@H](O)[C@H]1CO [Miglitol]
Conditions	phenotypic distance	surviving fraction
E13 [3], 4.11523 nM	–	0.886
E13 [3], 12.34567901 nM	–	0.888
E13 [3], 37.037 nM	–	0.938
E13 [3], 111.1111111 nM	–	0.955
E13 [3], 333.333 nM	–	0.951
E13 [3], 1000 nM	–	0.889
E13 [3], 3000 nM	–	0.98
E13 [10], 4.11523 nM	0.578	–
E13 [10], 12.34567901 nM	0.499	–
E13 [10], 37.037 nM	0.296	–
E13 [10], 111.1111111 nM	0.445	–
E13 [10], 333.333 nM	0.7	–
E13 [10], 1000 nM	0.441	–
E13 [10], 3000 nM	0.584	–
E21 [4], 4.11523 nM	–	0.916
E21 [4], 12.34567901 nM	–	0.86
E21 [4], 37.037 nM	–	0.996
E21 [4], 111.1111111 nM	–	0.946
E21 [4], 333.333 nM	–	0.949
E21 [4], 1000 nM	–	0.914
E21 [4], 3000 nM	–	0.993
E21 [11], 4.11523 nM	0.913	–
E21 [11], 12.34567901 nM	0.734	–
E21 [11], 37.037 nM	0.73	–
E21 [11], 111.1111111 nM	0.986	–
E21 [11], 333.333 nM	0.413	–
E21 [11], 1000 nM	0.51	–
E21 [11], 3000 nM	0.737	–
E28 [1], 4.11523 nM	–	0.997
E28 [1], 12.34567901 nM	–	0.913
E28 [1], 37.037 nM	–	1.12
E28 [1], 111.1111111 nM	–	0.877
E28 [1], 333.333 nM	–	1.06
E28 [1], 1000 nM	–	1.14
E28 [1], 3000 nM	–	1.03
E28 [8], 4.11523 nM	0.488	–
E28 [8], 12.34567901 nM	0.943	–
E28 [8], 37.037 nM	1.54	–
E28 [8], 111.1111111 nM	0.838	–
E28 [8], 333.333 nM	0.651	–
E28 [8], 1000 nM	0.777	–
E28 [8], 3000 nM	0.637	–
E31 [7], 4.11523 nM	–	0.768
E31 [7], 12.34567901 nM	–	1.15
E31 [7], 37.037 nM	–	0.954
E31 [7], 111.1111111 nM	–	0.999
E31 [7], 333.333 nM	–	1.01
E31 [7], 1000 nM	–	1.17
E31 [7], 3000 nM	–	0.956
E31 [14], 4.11523 nM	0.64	–
E31 [14], 12.34567901 nM	0.762	–
E31 [14], 37.037 nM	0.853	–
E31 [14], 111.1111111 nM	0.501	–
E31 [14], 333.333 nM	0.613	–
E31 [14], 1000 nM	0.778	–
E31 [14], 3000 nM	0.647	–
E34 [2], 4.11523 nM	–	0.825
E34 [2], 12.34567901 nM	–	1.07
E34 [2], 37.037 nM	–	0.964
E34 [2], 111.1111111 nM	–	1.17
E34 [2], 333.333 nM	–	1.04
E34 [2], 1000 nM	–	0.915
E34 [2], 3000 nM	–	1.14
E34 [9], 4.11523 nM	0.65	–
E34 [9], 12.34567901 nM	0.713	–
E34 [9], 37.037 nM	0.625	–
E34 [9], 111.1111111 nM	0.702	–
E34 [9], 333.333 nM	0.456	–
E34 [9], 1000 nM	0.679	–
E34 [9], 3000 nM	0.758	–
E57 [5], 4.11523 nM	–	1.03
E57 [5], 12.34567901 nM	–	1.03
E57 [5], 37.037 nM	–	1.06
E57 [5], 111.1111111 nM	–	0.966
E57 [5], 333.333 nM	–	0.955
E57 [5], 1000 nM	–	0.997
E57 [5], 3000 nM	–	1.1
E57 [12], 4.11523 nM	0.469	–
E57 [12], 12.34567901 nM	0.849	–
E57 [12], 37.037 nM	0.936	–
E57 [12], 111.1111111 nM	0.643	–
E57 [12], 333.333 nM	0.643	–
E57 [12], 1000 nM	0.624	–
E57 [12], 3000 nM	0.981	–
FT3469 [6], 4.11523 nM	–	0.878
FT3469 [6], 12.34567901 nM	–	0.954
FT3469 [6], 37.037 nM	–	0.984
FT3469 [6], 111.1111111 nM	–	0.963
FT3469 [6], 333.333 nM	–	1.06
FT3469 [6], 1000 nM	–	1.07
FT3469 [6], 3000 nM	–	1.14
FT3469 [13], 4.11523 nM	3.01	–
FT3469 [13], 12.34567901 nM	0.609	–
FT3469 [13], 37.037 nM	0.908	–
FT3469 [13], 111.1111111 nM	0.767	–
FT3469 [13], 333.333 nM	0.996	–
FT3469 [13], 1000 nM	0.816	–
FT3469 [13], 3000 nM	0.734	–
